Assay results reported in DBAASP.
In brackets after ≈: the same amount, converted by molar mass. Several values for one entry are separate records, joined by “and”; a condition that tells them apart may be missing. Identical values can stand only once.

Legend:
Experiment in all cases: ≥ marks a high value that may be exact or a test limit, other limits are often not marked, values filed in µg/mL are converted to µM
[1] = test system: Staphylococcus aureus ATCC 29213
[2] = test system: Escherichia coli ATCC 25922
[3] = test system: Staphylococcus aureus ATCC 25923
[4] = test system: Pseudomonas aeruginosa ATCC 27853

SMILES | MIC [1] | MIC [2] | MIC [3] | MIC [4]
CC[C@H](C)[C@H](NC(=O)CN)C(=O)NCC(=O)N[C@@H](CCCCN)C(=O)N[C@@H](CC(C)C)C(=O)N[C@@H](Cc1ccccc1)C(=O)N[C@@H](CC(C)C)C(=O)N[C@@H](Cc1cnc[nH]1)C(=O)N[C@@H](C)C(=O)N[C@@H](C)C(=O)N[C@@H](CCCCN)C(=O)N[C@@H](CCCCN)C(=O)N[C@@H](Cc1ccccc1)C(=O)N[C@@H](C)C(=O)N[C@@H](CCCCN)C(=O)N[C@@H](C)C(=O)N[C@@H](Cc1ccccc1)C(=O)N[C@H](C(=O)N[C@@H](C)C(=O)N[C@@H](CCC(=O)O)C(=O)N[C@@H](CCCCN)C(=O)N[C@@H](CCSC)C(=O)N[C@@H](CC(N)=O)C(=O)N[C@@H](CO)C(=O)O)C(C)C [GIGKLFLHAAKKFAKAFVAEKMNS] | 38.4 µM (≈ 100 µg/mL) | – | – | –
CC(C)C[C@H](NC(=O)CN)C(=O)N[C@@H](CC(C)C)C(=O)N[C@@H](CC(=O)O)C(=O)N[C@@H](Cc1ccccc1)C(=O)N[C@@H](CC(C)C)C(=O)N[C@@H](CCCCN)C(=O)N[C@@H](C)C(=O)N[C@@H](C)C(=O)NCC(=O)N[C@@H](CCCCN)C(=O)NCC(=O)N[C@@H](CC(C)C)C(=O)N[C@H](C(=O)N[C@@H](CO)C(=O)N[C@@H](CC(N)=O)C(=O)N[C@@H](CC(C)C)C(=O)N[C@@H](CC(C)C)C(=O)N[C@@H](CCC(=O)O)C(=O)N[C@@H](CCCCN)C(N)=O)C(C)C [GLLDFLKAAGKGLVSNLLEK] | – | 15 µM (≈ 31.3 µg/mL) | 15 µM (≈ 31.3 µg/mL) | –
CC(C)[C@H](NC(=O)[C@@H]1CCCN1C(=O)[C@@H](N)Cc1ccccc1)C(=O)N[C@H](C(=O)N[C@@H](Cc1c[nH]c2ccccc12)C(=O)N[C@@H](CCCCN)C(=O)N[C@@H](Cc1c[nH]c2ccccc12)C(=O)N[C@@H](Cc1c[nH]c2ccccc12)C(=O)N[C@@H](CCCCN)C(=O)N[C@@H](Cc1c[nH]c2ccccc12)C(=O)N[C@@H](Cc1c[nH]c2ccccc12)C(=O)N[C@@H](CCCCN)C(=O)NCC(N)=O)[C@@H](C)O [FPVTWKWWKWWKG] | – | 5.3 µM and 8 µM | 20 µM (≈ 36.7 µg/mL) | –
CC(C)C[C@H](NC(=O)[C@H](CC(C)C)NC(=O)[C@H](CC(N)=O)NC(=O)[C@H](CCCCN)NC(=O)[C@H](CC(C)C)NC(=O)[C@H](CC(=O)O)NC(=O)[C@@H](N)C(C)C)C(=O)N[C@@H](CCCCN)C(=O)O [VDLKNLLK] | – | – | – | 32 µM (≈ 30.1 µg/mL)
C[C@H](NC(=O)[C@H](Cc1c[nH]c2ccccc12)NC(=O)[C@H](CCCN=C(N)N)NC(=O)[C@H](Cc1c[nH]c2ccccc12)NC(=O)[C@H](C)NC(=O)[C@H](CCCCN)NC(=O)[C@@H](N)Cc1ccc(O)cc1)C(=O)N[C@@H](Cc1c[nH]c2ccccc12)C(=O)N[C@@H](CCCN=C(N)N)C(=O)N[C@@H](Cc1c[nH]c2ccccc12)C(=O)N[C@@H](CCCCN)C(N)=O [YKAWRWAWRWK] | – | 4.58 µM (≈ 7.5 µg/mL) | 3.05 µM (≈ 5 µg/mL) | 12.2 µM (≈ 20 µg/mL)
CC[C@H](C)[C@H](NC(=O)[C@H](CCCN=C(N)N)NC(=O)[C@H](CCCCN)NC(=O)[C@H](CC(C)C)NC(=O)[C@@H](NC(=O)CN)C(C)C)C(=O)N[C@@H](CCCCN)C(=O)N[C@H](C(=O)N[C@@H](CC(C)C)C(=O)N[C@H](C(N)=O)C(C)C)[C@@H](C)O [GVLKRIKTLV] | – | > 200 µM | – | –
CC[C@H](C)[C@H](NC(=O)[C@@H](NC(=O)[C@@H](NC(=O)CNC(=O)[C@H](C)NC(=O)[C@@H](NC(=O)[C@H](CC(N)=O)NC(=O)[C@@H](NC(=O)[C@H](C)NC(=O)[C@H](CC(C)C)NC(=O)[C@H](CC(N)=O)NC(=O)[C@H](CCCCN)NC(=O)[C@@H](NC(=O)[C@@H](NC(=O)[C@H](CO)NC(=O)[C@H](Cc1ccccc1)NC(=O)[C@H](Cc1ccccc1)NC(=O)CN)[C@@H](C)O)C(C)C)[C@@H](C)O)C(C)C)[C@@H](C)O)C(C)C)C(=O)N[C@@H](CC(=O)O)C(=O)N[C@H](C(=O)N[C@@H](CC(C)C)C(=O)N[C@@H](CCCCN)C(=O)N[C@H]1CSSC[C@@H](C(=O)N[C@@H](CCCN=C(N)N)C(=O)N[C@@H](CO)C(=O)O)NC(=O)CNC(=O)CNC(=O)[C@H]([C@@H](C)O)NC(=O)[C@H](C(C)C)NC(=O)[C@H](CCCCN)NC1=O)[C@@H](C)O [GFFSTVKNLATNVAGTVIDTLKCKVTGGCRS] | – | 78 µM (≈ 249 µg/mL) | – | –
CC[C@H](C)[C@H](NC(=O)CNC(=O)[C@H](CCCCN)NC(=O)[C@@H](NC(=O)[C@H](CC(C)C)NC(=O)[C@H](CO)NC(=O)CNC(=O)[C@H](CC(C)C)NC(=O)CNC(=O)[C@H](C)NC(=O)[C@H](CCCCN)NC(=O)[C@H](Cc1ccccc1)NC(=O)[C@@H](NC(=O)[C@H](CC(=O)O)NC(=O)[C@H](CCCCN)NC(=O)[C@H](CC(C)C)NC(=O)CN)[C@@H](C)CC)C(C)C)C(=O)N[C@@H](C)C(=O)N[C@@H](C)C(=O)N[C@@H](Cc1cnc[nH]1)C(=O)N[C@H](C(=O)N[C@@H](C)C(=O)N[C@@H](CC(N)=O)C(N)=O)C(C)C [GLKDIFKAGLGSLVKGIAAHVAN] | – | 25 µM (≈ 57 µg/mL) | 200 µM (≈ 456 µg/mL) | –
CC(C)C[C@H](NC(=O)[C@H](CCCCN)NC(=O)[C@H](CC(C)C)NC(=O)[C@H](CC(C)C)NC(=O)[C@H](CCCCN)NC(=O)[C@H](CCCCN)NC(=O)[C@@H]1CCCN1C(=O)[C@H](CC(C)C)NC(=O)[C@H](CCCCN)NC(=O)[C@H](CC(C)C)NC(=O)[C@H](CC(C)C)NC(=O)[C@H](CCCCN)NC(=O)[C@H](CCCCN)NC(=O)[C@@H](N)CC(C)C)C(=O)N[C@@H](C)C(=O)NCC(=O)O [LKKLLKLPKKLLKLAG] | > 40 µM | 5 µM (≈ 9.02 µg/mL) | – | –
CC[C@H](C)[C@H](NC(=O)CNC(=O)[C@H](CC(N)=O)NC(=O)[C@@H](NC(=O)[C@@H](NC(=O)CNC(=O)[C@@H](NC(=O)[C@H](CCCCN)NC(=O)[C@@H](NC(=O)CNC(=O)[C@H](CCCCN)NC(=O)CNC(=O)[C@@H](NC(=O)[C@@H](NC(=O)[C@H](CCCCN)NC(=O)[C@@H]1CCCN1C(=O)[C@H](Cc1ccccc1)NC(=O)[C@@H](NC(=O)CN)[C@@H](C)CC)[C@@H](C)CC)[C@@H](C)CC)[C@@H](C)CC)[C@@H](C)O)[C@@H](C)CC)C(C)C)C(=O)N[C@@H](CCCCN)C(=O)N[C@@H](CO)C(=O)N[C@@H](CC(C)C)C(=O)N[C@H](C(=O)N[C@@H](CCCCN)C(=O)NCC(=O)N[C@H](C(=O)NCC(=O)N[C@@H](CCSC)C(=O)N[C@@H](CCCCN)C(=O)N[C@H](C(=O)N[C@@H](Cc1ccccc1)C(=O)N[C@@H](CCCCN)C(=O)N[C@@H](C)C(=O)NCC(=O)N[C@@H](CC(C)C)C(=O)N[C@@H](CO)C(=O)N[C@@H](CC(N)=O)C(=O)N[C@H](C(=O)NCC(=O)N[C@@H](CC(N)=O)C(=O)N[C@H](C(=O)NCC(=O)N[C@H]1CSSC[C@@H](C(=O)O)NC(=O)[C@H](CCC(=O)O)NC(=O)[C@H](CC(=O)O)NC(=O)[C@H](CCC(=O)O)NC(=O)[C@H](CC(N)=O)NC1=O)[C@@H](C)O)[C@@H](C)CC)C(C)C)C(C)C)C(C)C [GIFPKIIGKGIKTGIVNGIKSLVKGVGMKVFKAGLSNIGNTGCNEDEC] | – | 1 µM (≈ 4.9 µg/mL) | – | –
CSCC[C@H](NC(=O)[C@H](CCCN=C(N)N)NC(=O)[C@H](Cc1c[nH]c2ccccc12)NC(=O)[C@H](C)NC(=O)[C@H](Cc1c[nH]c2ccccc12)NC(=O)[C@H](CCCN=C(N)N)NC(=O)[C@H](Cc1ccc(O)cc1)NC(=O)[C@H](Cc1c[nH]c2ccccc12)NC(=O)[C@H](CCCN=C(N)N)NC(=O)[C@@H](N)CCCN=C(N)N)C(=O)N[C@@H](CCCN=C(N)N)C(N)=O [RRWYRWAWRMR] | – | 5.8 µM (≈ 9.99 µg/mL) | 2.9 µM (≈ 5 µg/mL) | 4.35 µM (≈ 7.5 µg/mL)
CC(C)C[C@H](NC(=O)[C@H](CCCCN)NC(=O)CNC(=O)[C@@H](N)CO)C(=O)N[C@@H](Cc1ccc(O)cc1)C(=O)N[C@@H](Cc1ccc(O)cc1)C(=O)N[C@@H](CCCN=C(N)N)C(=O)N[C@@H](CCCN=C(N)N)C(=O)N[C@@H](CCCCN)C(=O)N[C@@H](CCCCN)C(N)=O [SGKLYYRRKK] | – | – | > 100 µM | > 100 µM
CC[C@H](C)[C@H](NC(=O)CNC(=O)[C@H](CCSC)NC(=O)[C@H](CCCCN)NC(=O)[C@H](C)NC(=O)[C@H](CC(C)C)NC(=O)[C@H](CCCCN)NC(=O)[C@H](CCC(=O)O)NC(=O)[C@H](CC(C)C)NC(=O)CNC(=O)[C@H](CCCN=C(N)N)NC(=O)[C@H](CC(C)C)NC(=O)[C@@H](NC(=O)[C@H](CO)NC(=O)[C@H](CC(C)C)NC(=O)[C@H](C)N)[C@@H](C)CC)C(=O)N[C@@H](C)C(=O)N[C@@H](CC(C)C)C(=O)N[C@H](C(=O)N[C@@H](CC(N)=O)C(=O)N[C@H]1CSSC[C@@H](C(=O)O)NC(=O)[C@H](CCCCN)NC(=O)[C@H](CCCCN)NC(=O)[C@H]([C@@H](C)O)NC(=O)[C@H](C)NC(=O)[C@H](CCCCN)NC1=O)[C@@H](C)O [ALSILRGLEKLAKMGIALTNCKATKKC] | – | 28 µM (≈ 80.5 µg/mL) | – | –
CC[C@H](C)[C@H](NC(=O)[C@H](Cc1c[nH]c2ccccc12)NC(=O)[C@H](CCCN=C(N)N)NC(=O)[C@H](Cc1c[nH]c2ccccc12)NC(=O)[C@H](Cc1c[nH]c2ccccc12)NC(=O)[C@H](CCCN=C(N)N)NC(=O)[C@H](CCCN=C(N)N)NC(=O)[C@H](Cc1c[nH]c2ccccc12)NC(=O)[C@@H](N)CCCN=C(N)N)C(N)=O [RWRRWWRWI] | – | 10.7 µM (≈ 16 µg/mL) | – | –
CC(C)C[C@H](NC(=O)[C@H](C)NC(=O)[C@@H](N)CCCCN)C(=O)N[C@@H](Cc1c[nH]c2ccccc12)C(=O)N[C@@H](CCCCN)C(=O)N[C@H](C(=O)N[C@@H](CC(C)C)C(=O)N[C@@H](CC(C)C)C(=O)N[C@@H](CCCCN)C(=O)N[C@@H](CCCCN)C(=O)N[C@H](C(=O)N[C@@H](CC(C)C)C(=O)N[C@@H](CCCCN)C(=O)N[C@@H](C)C(N)=O)C(C)C)[C@@H](C)O [KALWKTLLKKVLKA] | – | 3 µM (≈ 4.92 µg/mL) | 25 µM (≈ 41 µg/mL) | –
CC[C@H](C)[C@H](NC(=O)[C@@H](NC(=O)[C@@H]1CCCN1C(=O)CNC(=O)[C@@H](NC(=O)[C@@H](N)Cc1ccccc1)[C@@H](C)CC)[C@@H](C)CC)C(=O)N[C@@H](CO)C(=O)N[C@@H](C)C(=O)N[C@@H](CC(C)C)C(=O)N[C@@H](C)C(=O)N[C@@H](CO)C(=O)N[C@@H](CC(C)C)C(=O)N[C@@H](Cc1ccccc1)C(=O)NCC(N)=O [FIGPIISALASLFG] | – | > 60 µM | > 60 µM | –
C[C@H](NC(=O)[C@H](Cc1ccccc1)NC(=O)[C@H](CCCCN)NC(=O)[C@H](CCCCN)NC(=O)[C@H](C)NC(=O)[C@@H](N)Cc1ccccc1)C(=O)N[C@@H](CCCCN)C(=O)N[C@@H](CCCCN)C(=O)N[C@@H](Cc1ccccc1)C(=O)N[C@@H](CCCCN)C(N)=O [FAKKFAKKFK] | – | 193 µM (≈ 240 µg/mL) | 193 µM (≈ 240 µg/mL) | 193 µM (≈ 240 µg/mL)
